What was measured:
[1] = tested on: MMA in RKO cells; experiment: RKO In Cell Western assay (MMA primary antibody); type: cell-based; settings: Homo sapiens, 72 hours, read-out: RKO ICW_EC30
How it was run: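 After 72 h compound exposure at 37 °C, RKO cells (2,000/well) were fixed, permeabilized and probed with MMA primary antibody plus HRP secondary, TMB read at OD450. Signal normalized to Janus green OD595; activation % derived from OD450/OD595 relative to DMSO and 10 μM positive controls, 8-point threefold series from 5 μM.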

[2] = target: T1, PRMT4 (Homo sapiens, UniProt Q86X55); experiment: PRMT panel selectivity test, PRMT4; type: biochemical
T1 sequence (Q86X55 1-608): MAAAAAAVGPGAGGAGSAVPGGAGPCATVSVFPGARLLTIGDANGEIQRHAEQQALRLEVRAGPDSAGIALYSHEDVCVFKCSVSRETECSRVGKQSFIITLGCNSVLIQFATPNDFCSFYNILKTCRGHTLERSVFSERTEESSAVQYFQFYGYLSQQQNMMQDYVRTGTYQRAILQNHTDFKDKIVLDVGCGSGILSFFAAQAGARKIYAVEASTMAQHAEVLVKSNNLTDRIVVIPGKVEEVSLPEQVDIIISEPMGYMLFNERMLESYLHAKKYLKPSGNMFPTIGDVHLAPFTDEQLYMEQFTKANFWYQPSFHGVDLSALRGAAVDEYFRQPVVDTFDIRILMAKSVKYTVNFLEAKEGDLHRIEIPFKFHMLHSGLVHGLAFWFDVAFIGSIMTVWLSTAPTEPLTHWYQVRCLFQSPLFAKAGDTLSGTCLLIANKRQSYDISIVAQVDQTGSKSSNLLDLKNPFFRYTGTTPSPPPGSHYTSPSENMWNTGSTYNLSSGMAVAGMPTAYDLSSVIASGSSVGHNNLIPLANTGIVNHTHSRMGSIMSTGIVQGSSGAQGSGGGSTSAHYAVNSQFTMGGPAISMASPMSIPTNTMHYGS
Protocol: [The procedure below names another target; the source says it served here with some conditions changed.] This experiment was assayed in a buffer prepared on the same day consisting of 10 mMTirs-HCl (pH=8.0), […] and 1 mM DTT. The compounds were prepared to the highest inhibitor concentration ultimately required in the 100× reaction with 100% DMSO and then transferred to one well of a 384-well Echo plate (Echo-eligible 384-well polypropylene microplates 2.0, transparent, flat-bottomed) and sequentially diluted in the next well with a 3-fold dilution of 100% DMSO, and so on, with a total of 10 concentrations based on Precision. 100% DMSO was added to two empty wells as control well without compound and control well without enzyme in the same 384-well Echo plate. 100 nL of compound was transferred from each well of the 384-well Echo plate to a 384-well assay plate (OptiPlate (384-well, white)) via the Echo 550 liquid processor. For wells with compounds and control well without compound, a mixture containing PRMT1 enzyme (5 uL) was added to the 384-well assay plate. For control well without enzyme, a mixture containing test buffer (5 uL) was added instead. The compounds were allowed to incubate with PRMT3 for 15 minutes at room temperature, and then a mixture containing cold SAM and peptide (5 uL) was added to start the reaction (final volume=10 uL). The final concentrations of the components were as follows: 0.1 nM for PRMT3, 15 uM for SAM, 0.05 uM for peptide, and 1% DMSO. After 60 min of incubation at room temperature, the reaction was terminated by the addition of donor and acceptor magnetic beads (15 uL) with a final concentration of 10 ug/mL diluted with AlphaLISA Epigenetics Buffer. The 384-well assay plate was incubated at room temperature for 60 min and the relative fluorescence units (RFU) were nextly determined using a multi-mode plate reader in Alpha mode (Ex680/Em615).
Curve fitting: the raw data were copied from Reader and the inhibition values were calculated in Excel by equation (1). […]

IC50 [2] [nM] | Structure (SMILES) | EC30 [1] [nM]
< 50 | CCOCC1(COCC)CCC(c2cccnc2CN(C)CCNC)CC1 [P207] | < 250
< 50 | CNCCN(C)Cc1ccccc1C1CCN(c2ccccc2)CC1 [P023] | < 250
50 to 500 | CNCCN(C)Cc1ncccc1N1CCc2ccccc2CC1 [P118] | < 250

Reference: patent US20240307409A1, “ARGININE METHYLTRANSFERASE INHIBITOR AND USE THEREOF” (Cytosinlab Therapeutics Co., Ltd., priority 2021, published 2024)
